Results published in patent publication US11598701B1, “Method and system for lysing a liquid sample with augmented oxidizing agents to create a solution with a reduced microbial concentration and precipitate formation” (BIS SCIENCE LLC, priority 2021, dated 2023).
Where “and” joins values, the source holds several entries; their conditions need not be identical. Equal values may be shown once.

Tested on: S. aureus ATCC 6538
Experiment: Antimicrobial suspension test of H2O2 with and without photon activation
Type: cell-based
Details: contact time 5 minutes; for Average CFU/ML: average of replicates; for CFU/ML: single replicate

OO [1 ppm H2O2 no photon activation, H2O2]
% reduction Compared to controls: No reduction
LOG 10 Reduction compared to controls: No reduction
Average CFU/ML: 4.05E+06 CFU/ML
CFU/ML: 4.10E+06 CFU/ML
CFU/ML (listed as l ppm H2O2 no photon activation): 4.10E+06 CFU/ML

OO [.3% H2O2 no photon activation, H2O2]
% reduction Compared to controls: No reduction
LOG 10 Reduction compared to controls: No reduction
Average CFU/ML: 4.05E+06 CFU/ML
CFU/ML: 4.10E+06 CFU/ML and 4.00E+06 CFU/ML
